# Tested on: diabetic retinopathy
# Assay: Treatment of a patient with proliferative (left eye) and non-proliferative (right eye) diabetic retinopathy
# Format: in vivo, human
# Conditions: Example 10
# Experimental: A person complains of vision loss in the left eye. The patient reports an onset of Type II diabetes, and has been under treatment with metformin hydrochloride for 10 years.
# The patient is given an intravitreal injection comprising 150 μl of a solution of hyaluronic acid in which biodegradable PLGA microspheres (mean particle diameter of about 40 μm; lactide to glycolide ratio 75:25) are suspended. See U.S. patent application Ser. No. 11/368,845, filed Mar. 6, 2006, incorporated by reference herein in its entirety. Approximate weight of microspheres per dose was 20 mg. In addition to the PLGA polymer, the microspheres comprise approximately 5% by weight of an SDF-1α derivative that comprises a disulfide-linked dimer comprising two identical peptides, with each peptide comprising amino acids 1-9 of SDF-1 (these positions correspond to amino acids 22-47 of SEQ ID NO: 4, 5, and 6) with glycine substituted for proline in each position 2 (corresponding to position 23 of SEQ ID NO: 4, 5, and 6).
# The patient's visual acuity (and retinal condition under dilation) are monitored every two weeks for 8 weeks.
# The patient of Example 9 is treated by subconjunctival injection in each eye (100 μl volume in hyaluronic acid solution) of a single fibrous monolithic PLGA intraocular implant (approximately 120 μg; diameter approximately 3 mm) comprising 50% by weight of a CXCR4-inhibitory compound: N-[(S)-1-(1-naphthyl)ethyl]-5-(2-methylbenzyl)amino-2-(S)-[4-[N-(imidazole-2-ylmethyl)aminomethyl]benzoyl]aminopentanoylamide (see Yamzaki et al., U.S. Publication No. 2004/0254221.
# After 8 weeks visual acuity is tested, and has improved by 2 lines in each eye.
# The patient of Example 9 is administered an intravitreal injection in each eye comprising 150 μl of a solution of hyaluronic acid in which biodegradable PLGA microspheres (mean particle diameter of about 40 μm; lactide to glycolide ratio 75:25) are suspended. Approximate weight of microspheres per dose was 20 mg. […]
smiles,measurement,setting,value
Cc1ccccc1CNCCC[C@H](NC(=O)c1ccc(CNCc2ncc[nH]2)cc1)C(=O)N[C@@H](C)c1cccc2ccccc12 [N-[(S)-1-(1-naphthyl)ethyl]-5-(2-methylbenzyl)amino-2-(S)-[4-[N-(imidazole-2-ylmethyl)aminomethyl]benzoyl]aminopentanoylamide],fluorescein angiography: leakage of blood into the retina,after 6 weeks,does not reveal any leakage of blood into the retina
same,"improvement in visual acuity, each eye",after 8 weeks,2 lines
same,macular edema,"subconjunctival PLGA implant, 50% by weight compound, each eye, after 6 weeks",barely observable
